Data taken from patent US20260240869A1, “ANTIPSEUDOMONAL FUSIDIC ACID COMPOUNDS” (priority 2022, published 2026).
Values after ≈ are worked out from the molar mass of the structure shown. Read-outs that look alike come from different tables or passages of the source.

Columns and labels:
S. aureus ATCC 29213 = assay: MIC, S. aureus ATCC 29213; format: cell-based; settings: Staphylococcus aureus, ATCC29213; Table 9; read-out: MIC S. aureus ATCC 29213
Experimental: (§1) Antimicrobial Susceptibility Tests. Susceptibility testing was performed in biological triplicate, using the microdilution broth method as outlined by the Clinical and Laboratory Standards Institute. Bacteria were cultured with cation-adjusted Meuller-Hinton broth (Sigma-Aldrich; catalogue number: 90922) or Luria-Bertani (LB) broth (Lennox) in round-bottom 96-well plates (Corning; catalogue number: 3788).

P. aeruginosa PAO1 [1] = assay: MIC, CLSI broth microdilution, P. aeruginosa PAO1; format: cell-based, Pseudomonas aeruginosa; settings: for MIC: Pseudomonas aeruginosa
In short: (§2)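 Broth microdilution per CLSI guidelines, performed in biological triplicate. Bacteria were grown in cation-adjusted Mueller-Hinton broth or Luria-Bertani (Lennox) broth.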

[2] = tested on: clinical isolates of P. aeruginosa; assay: MIC against panel of clinical isolates of P. aeruginosa; format: cell-based, Pseudomonas aeruginosa; settings: for MIC: Pseudomonas aeruginosa, read-out: MIC
Experimental: as §1

[3] = tested on: FA resistance mutants of P. aeruginosa PAO1 A6; assay: MIC in FA-resistant mutants; format: cell-based, Pseudomonas aeruginosa; settings: mutants generated in PAO1 A6
Experimental: as §1
Selection ofresistant mutants. Resistant mutants were selected using the large inoculum method. […] Colonies were visible after incubating at 37° C. for 72 h.

P. aeruginosa PAO1 [4] = assay: DiSC3 (5) inner membrane depolarization assay; format: cell-based, Pseudomonas aeruginosa
E. coli MG1655 = assay: MIC, E. coli MG1655; format: cell-based; settings: Escherichia coli, MG1655
In short: as §2

With `CC(=O)O[C@H]1C[C@@]2(C)[C@@H](C[C@@H](O)[C@H]3[C@@]4(C)CC[C@@H](O)[C@@H](C)[C@@H]4CC[C@@]32C)/C1=C(\CCC=C(C)C)C(=O)O` [FA, Fusidic acid] the MIC (S. aureus ATCC 29213) was 0.125 µg/mL (≈ 0.242 µM), the MIC P. aeruginosa PAO1, CAMH (P. aeruginosa PAO1 [1]; CAMH (Table 10)) was 1020 µg/mL (≈ 1980 µM) and the “shift in MIC on co-treatment with 5 mM MgCl2” value (P. aeruginosa PAO1 [1]; P. aeruginosa PAO1) was “no change in antibacterial activity”. The MIC (P. aeruginosa PAO1 [1]; PAO1, CLSI (Table 8), read-out: P. aeruginosa PAO1 MIC) was 1020 µg/mL (≈ 1980 µM), the MIC (P. aeruginosa PAO1 [1]; PAO1, Table 9, read-out: MIC P. aeruginosa PAO1) was 1020 µg/mL (≈ 1980 µM) and the MIC (P. aeruginosa PAO1 [1]; Reference strain PAO1 (Table 11), read-out: MIC) was 1020 µg/mL (≈ 1980 µM). For the same molecule, the MIC (P. aeruginosa PAO1 [1]; WT P. aeruginosa PAO1, MH broth (Table 1), read-out: PAO1 MIC) was over 512 µg/mL, the “MIC P. aeruginosa PAO1, 5 mM MgCl2/CAMH” value (P. aeruginosa PAO1 [1]; co-treatment 5 mM MgCl2 in CAMH (Table 10)) was 1024 and the “PAO1 + PMBN MIC” value (P. aeruginosa PAO1 [1]; co-treatment of 8 μg/mL of PMBN, MH broth) was 4 µg/mL. The “MIC versus PAO1” value (P. aeruginosa PAO1 [1]; text b125, Chart 6) was 1024 μg/mLh, the “activity (MIC) against a panel of 75 clinical isolates of P. aeruginosa” value [2] was “essentially no antibacterial activity” and the MIC ([2]; AR Bank Isolate # 0054) was over 1020 µg/mL. It also gave an MIC ([2]; AR Bank Isolate # 0064) of over 1020 µg/mL, an MIC ([2]; AR Bank Isolate # 0090) of over 1020 µg/mL and an MIC ([2]; AR Bank Isolate # 0092) of over 1020 µg/mL. For the same molecule, the MIC ([2]; AR Bank Isolate # 0095) was over 1020 µg/mL, the MIC ([2]; AR Bank Isolate # 0100) was over 1020 µg/mL and the MIC ([2]; AR Bank Isolate # 0103) was over 1020 µg/mL. For the same molecule, the MIC ([2]; AR Bank Isolate # 0110) was over 1020 µg/mL, the MIC ([2]; AR Bank Isolate # 0229) was over 1020 µg/mL and the MIC ([2]; AR Bank Isolate # 0230) was over 1020 µg/mL. For the same molecule, the MIC ([2]; AR Bank Isolate # 0231) was over 1020 µg/mL, the MIC ([2]; AR Bank Isolate # 0232) was over 1020 µg/mL and the MIC ([2]; AR Bank Isolate # 0233) was over 1020 µg/mL. The MIC ([2]; AR Bank Isolate # 0234) was 1020 µg/mL (≈ 1980 µM), the MIC ([2]; AR Bank Isolate # 0235) was over 1020 µg/mL and the MIC ([2]; AR Bank Isolate # 0236) was over 1020 µg/mL. It also gave an MIC ([2]; AR Bank Isolate # 0237) of over 1020 µg/mL, an MIC ([2]; AR Bank Isolate # 0239) of over 1020 µg/mL and an MIC ([2]; AR Bank Isolate # 0240) of over 1020 µg/mL. For the same molecule, the MIC ([2]; AR Bank Isolate # 0241) was over 1020 µg/mL, the MIC ([2]; AR Bank Isolate # 0242) was over 1020 µg/mL and the MIC ([2]; AR Bank Isolate # 0243) was over 1020 µg/mL. For the same molecule, the MIC ([2]; AR Bank Isolate # 0244) was over 1020 µg/mL, the MIC ([2]; AR Bank Isolate # 0245) was over 1020 µg/mL and the MIC ([2]; AR Bank Isolate # 0246) was 1020 µg/mL (≈ 1980 µM). The MIC ([2]; AR Bank Isolate # 0248) was over 1020 µg/mL, the MIC ([2]; AR Bank Isolate # 0250) was over 1020 µg/mL and the MIC ([2]; AR Bank Isolate # 0252) was over 1020 µg/mL. The MIC ([2]; AR Bank Isolate # 0254) was over 1020 µg/mL, the MIC ([2]; AR Bank Isolate # 0265) was over 1020 µg/mL and the MIC ([2]; AR Bank Isolate # 0763) was over 1020 µg/mL. The MIC ([2]; AR Bank Isolate # 0767) was over 1020 µg/mL, the MIC ([2]; AR Bank Isolate # 0769) was over 1020 µg/mL and the MIC ([2]; AR Bank Isolate # 0772) was over 1020 µg/mL. The MIC ([2]; Carle Isolate ID # Cl-02) was 1020 µg/mL (≈ 1980 µM), the MIC ([2]; Carle Isolate ID # Cl-03) was 1020 µg/mL (≈ 1980 µM) and the MIC ([2]; Carle Isolate ID # Cl-04) was over 1020 µg/mL. It also gave an MIC ([2]; Carle Isolate ID # Cl-05) of over 1020 µg/mL, an MIC ([2]; Carle Isolate ID # Cl-06) of over 1020 µg/mL and an MIC ([2]; Carle Isolate ID # Cl-07) of over 1020 µg/mL. It also gave an MIC ([2]; Carle Isolate ID # Cl-08) of over 1020 µg/mL, an MIC ([2]; Carle Isolate ID # Cl-09) of over 1020 µg/mL and an MIC ([2]; Carle Isolate ID # Cl-10) of over 1020 µg/mL. The MIC ([2]; Carle Isolate ID # Cl-11) was over 1020 µg/mL, the MIC ([2]; Carle Isolate ID # Cl-12) was over 1020 µg/mL and the MIC ([2]; Carle Isolate ID # Cl-13) was over 1020 µg/mL. The MIC ([2]; Carle Isolate ID # Cl-14) was over 1020 µg/mL, the MIC ([2]; Carle Isolate ID # Cl-15) was over 1020 µg/mL and the MIC ([2]; Carle Isolate ID # Cl-19) was over 1020 µg/mL. For the same molecule, the MIC ([2]; Cubist Strain ID # 996) was over 1020 µg/mL, the MIC ([2]; Cubist Strain ID # 997) was over 1020 µg/mL and the MIC ([2]; Cubist Strain ID # 998) was 1020 µg/mL (≈ 1980 µM). The MIC ([2]; Cubist Strain ID # 999) was over 1020 µg/mL, the MIC ([2]; Cubist Strain ID # 1000) was over 1020 µg/mL and the MIC ([2]; Cubist Strain ID # 1001) was over 1020 µg/mL. For the same molecule, the MIC ([2]; Cubist Strain ID # 1174) was over 1020 µg/mL, the MIC ([2]; Cubist Strain ID # 1175) was over 1020 µg/mL and the MIC ([2]; Cubist Strain ID # 1176) was over 1020 µg/mL. The MIC ([2]; Cubist Strain ID # 1280) was over 1020 µg/mL, the MIC ([2]; Cubist Strain ID # 1282) was over 1020 µg/mL and the MIC ([2]; Cubist Strain ID # 1283) was over 1020 µg/mL. It also gave an MIC ([2]; Cubist Strain ID # 1284) of over 1020 µg/mL, an MIC ([2]; Cubist Strain ID # 1586) of over 1020 µg/mL and an MIC ([2]; Cubist Strain ID # 1590) of over 1020 µg/mL. For the same molecule, the MIC ([2]; Cubist Strain ID # 1591) was over 1020 µg/mL, the MIC ([2]; Cubist Strain ID # 1592) was over 1020 µg/mL and the MIC ([2]; Cubist Strain ID # 1905) was over 1020 µg/mL. The MIC ([2]; Cubist Strain ID # 1906) was over 1020 µg/mL, the MIC ([2]; Cubist Strain ID # 2242) was over 1020 µg/mL and the MIC ([2]; Cubist Strain ID # 2243) was over 1020 µg/mL. The MIC ([2]; Cubist Strain ID # 2244) was over 1020 µg/mL, the MIC ([2]; Other strains (ref.) 1113) was over 1020 µg/mL and the MIC ([2]; Other strains (ref.) 1727) was over 1020 µg/mL. For the same molecule, the “MIC fold change in FA-resistant strains” value [3] was 32-128 ×, the “inner membrane depolarization (DiSC3 (5) fluorescence)” value (P. aeruginosa PAO1 [4]) was “did not impact membrane polarization” and the MIC (E. coli MG1655; CLSI (Table 8), read-out: E. coli MG1655 MIC) was 512 µg/mL (≈ 991 µM). For the same molecule, the MIC (E. coli MG1655; Table 9, read-out: MIC E. coli MG1655) was 512 µg/mL (≈ 991 µM).
